Results: ChEMBL document CHEMBL1909046, “DrugMatrix in vitro pharmacology data”

Columns and labels:
[1] = target: T1, C-X-C chemokine receptor type 2 (Homo sapiens, UniProt P25025); format: cell membranes, Membrane; conditions: cho-k1; note: in other assays of this panel Not Active means under 50% inhibition at 10 µM
T1 sequence (P25025 whole entry): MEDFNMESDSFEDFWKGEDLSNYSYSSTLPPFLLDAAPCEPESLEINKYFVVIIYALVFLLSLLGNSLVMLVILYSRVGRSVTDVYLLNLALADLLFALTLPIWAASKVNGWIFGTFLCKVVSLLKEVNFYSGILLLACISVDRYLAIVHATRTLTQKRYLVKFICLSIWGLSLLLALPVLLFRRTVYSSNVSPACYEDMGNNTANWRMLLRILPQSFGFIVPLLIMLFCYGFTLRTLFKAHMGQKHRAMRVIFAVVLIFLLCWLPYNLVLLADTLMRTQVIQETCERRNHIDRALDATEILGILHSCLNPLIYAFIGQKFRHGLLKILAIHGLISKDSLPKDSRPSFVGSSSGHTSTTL

[2] = DRUGMATRIX: Glutamate, AMPA radioligand binding (ligand: [3H] AMPA); format: cell membranes, Rattus norvegicus, Wistar, Cerebral cortex, Membrane; conditions: Not Active = under 50% inhibition at 10 µM
[3] = target: Melanocortin receptor 5 (Homo sapiens, UniProt P33032); format: cell membranes, HEK293, Membrane; note: in other assays of this panel Not Active means under 50% inhibition at 10 µM
Sequence of Melanocortin receptor 5 (P33032 whole entry): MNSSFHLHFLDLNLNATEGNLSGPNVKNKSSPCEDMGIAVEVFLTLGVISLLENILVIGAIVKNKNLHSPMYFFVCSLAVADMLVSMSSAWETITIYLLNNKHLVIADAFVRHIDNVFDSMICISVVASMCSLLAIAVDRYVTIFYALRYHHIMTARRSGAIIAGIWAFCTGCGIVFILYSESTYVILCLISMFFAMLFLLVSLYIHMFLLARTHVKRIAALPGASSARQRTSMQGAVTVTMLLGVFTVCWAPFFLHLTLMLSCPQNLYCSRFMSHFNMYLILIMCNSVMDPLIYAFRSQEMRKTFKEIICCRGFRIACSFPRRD

[4] = target: Nitric oxide synthase 1 (Rattus norvegicus, UniProt P29476); format: tissue-based, Cerebellum; note: in other assays of this panel Not Active means under 50% inhibition at 10 µM
Sequence of Nitric oxide synthase 1 (P29476 whole entry): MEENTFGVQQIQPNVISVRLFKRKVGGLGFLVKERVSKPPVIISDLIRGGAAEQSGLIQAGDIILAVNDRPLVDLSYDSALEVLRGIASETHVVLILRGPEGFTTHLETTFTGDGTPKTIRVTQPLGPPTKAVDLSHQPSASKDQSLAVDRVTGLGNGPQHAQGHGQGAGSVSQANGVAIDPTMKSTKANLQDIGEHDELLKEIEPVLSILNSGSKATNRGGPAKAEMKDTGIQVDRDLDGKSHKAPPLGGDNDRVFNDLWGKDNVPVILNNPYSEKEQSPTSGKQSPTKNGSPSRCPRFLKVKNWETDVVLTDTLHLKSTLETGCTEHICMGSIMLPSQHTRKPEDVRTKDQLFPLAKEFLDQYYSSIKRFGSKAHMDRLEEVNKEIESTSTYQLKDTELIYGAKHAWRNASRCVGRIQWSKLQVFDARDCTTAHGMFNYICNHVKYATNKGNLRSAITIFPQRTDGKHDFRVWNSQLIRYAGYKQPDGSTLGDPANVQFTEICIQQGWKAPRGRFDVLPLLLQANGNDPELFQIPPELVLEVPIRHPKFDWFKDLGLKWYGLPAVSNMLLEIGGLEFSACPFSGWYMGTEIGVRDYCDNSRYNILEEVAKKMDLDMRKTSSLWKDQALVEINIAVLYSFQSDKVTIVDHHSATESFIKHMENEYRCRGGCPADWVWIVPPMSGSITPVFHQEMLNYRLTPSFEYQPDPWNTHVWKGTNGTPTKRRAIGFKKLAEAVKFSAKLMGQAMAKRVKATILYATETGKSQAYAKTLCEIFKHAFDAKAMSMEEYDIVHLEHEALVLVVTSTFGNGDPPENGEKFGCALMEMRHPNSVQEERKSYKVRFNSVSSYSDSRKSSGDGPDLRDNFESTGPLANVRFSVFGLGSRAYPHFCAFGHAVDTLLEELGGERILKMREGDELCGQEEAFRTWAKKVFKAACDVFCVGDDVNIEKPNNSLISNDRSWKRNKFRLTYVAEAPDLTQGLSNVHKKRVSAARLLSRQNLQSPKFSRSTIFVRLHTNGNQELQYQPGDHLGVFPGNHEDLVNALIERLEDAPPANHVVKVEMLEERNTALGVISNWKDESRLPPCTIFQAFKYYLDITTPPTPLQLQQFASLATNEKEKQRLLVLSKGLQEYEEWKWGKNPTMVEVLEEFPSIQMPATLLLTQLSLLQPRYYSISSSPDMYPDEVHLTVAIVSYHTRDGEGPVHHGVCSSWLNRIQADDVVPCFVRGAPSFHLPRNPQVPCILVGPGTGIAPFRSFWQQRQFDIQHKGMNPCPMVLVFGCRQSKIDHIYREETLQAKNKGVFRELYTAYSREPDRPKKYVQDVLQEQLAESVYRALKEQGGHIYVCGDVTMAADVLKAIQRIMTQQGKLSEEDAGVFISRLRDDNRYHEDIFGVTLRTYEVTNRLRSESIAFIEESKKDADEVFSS

[5] = target: Mitogen-activated protein kinase 3 (Homo sapiens, UniProt P27361); test: DRUGMATRIX: Protein Serine/Threonine Kinase, ERK1 enzyme inhibition (substrate: Myelin Basic Protein); set-up: species or system Escherichia coli; conditions: Not Active = under 50% inhibition at 10 µM
Sequence of Mitogen-activated protein kinase 3 (P27361 whole entry): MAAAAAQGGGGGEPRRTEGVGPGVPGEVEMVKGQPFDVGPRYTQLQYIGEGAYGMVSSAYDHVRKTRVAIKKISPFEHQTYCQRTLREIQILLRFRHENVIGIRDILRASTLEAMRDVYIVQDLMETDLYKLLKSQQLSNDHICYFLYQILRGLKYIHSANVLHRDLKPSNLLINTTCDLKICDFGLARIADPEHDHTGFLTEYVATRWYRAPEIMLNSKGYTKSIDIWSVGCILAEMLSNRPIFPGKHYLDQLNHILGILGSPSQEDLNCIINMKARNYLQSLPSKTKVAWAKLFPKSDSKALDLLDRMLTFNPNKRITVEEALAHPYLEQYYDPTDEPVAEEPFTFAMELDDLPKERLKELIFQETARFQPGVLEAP

[6] = target: Mitogen-activated protein kinase 1 (Homo sapiens, UniProt P28482); test: DRUGMATRIX: Protein Serine/Threonine Kinase, ERK2 enzyme inhibition (substrate: Myelin Basic Protein); set-up: species or system Escherichia coli; conditions: Not Active = under 50% inhibition at 10 µM
Sequence of Mitogen-activated protein kinase 1 (P28482 whole entry): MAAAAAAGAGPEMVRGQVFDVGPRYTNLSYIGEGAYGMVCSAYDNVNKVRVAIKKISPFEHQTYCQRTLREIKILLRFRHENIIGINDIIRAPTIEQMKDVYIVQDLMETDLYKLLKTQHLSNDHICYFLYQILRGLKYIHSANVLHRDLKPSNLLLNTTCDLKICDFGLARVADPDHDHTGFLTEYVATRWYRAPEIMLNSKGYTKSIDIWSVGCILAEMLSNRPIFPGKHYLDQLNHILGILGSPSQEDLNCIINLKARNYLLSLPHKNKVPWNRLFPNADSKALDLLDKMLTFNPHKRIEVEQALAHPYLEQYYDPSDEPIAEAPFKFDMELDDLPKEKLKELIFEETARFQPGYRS

| SMILES | IC50 [1] | IC50 [2] | Ki [2] | IC50 ([3]; hek293) | IC50 [4] | IC50 [5] | IC50 [6] | IC50 ([3]; read-out: IC50) | Ki ([3]; read-out: Ki) | IC50 ([5]; read-out: IC50) | IC50 ([6]; read-out: IC50) |
| --- | --- | --- | --- | --- | --- | --- | --- | --- | --- | --- | --- |
| C[C@@H]1C[C@H]2[C@@H]3CCC4=CC(=O)C=C[C@]4(C)[C@@]3(F)[C@@H](O)C[C@]2(C)[C@H]1C(=O)CO [DESOXIMETASONE] | Not Active | Not Active | Not Active | Not Active | Not Active | Not Active | Not Active | – | – | – | – |
| C[C@@H]1C[C@H]2[C@@H]3CCC4=CC(=O)C=C[C@]4(C)[C@@]3(F)[C@@H](O)C[C@]2(C)[C@@]1(O)C(=O)CO [DEXAMETHASONE] | Not Active | Not Active | Not Active | Not Active | Not Active | Not Active | Not Active | – | – | – | – |
| CN(C)CC[C@@H](c1ccc(Cl)cc1)c1ccccn1 [DEXCHLORPHENIRAMINE] | Not Active | Not Active | Not Active | Not Active | Not Active | Not Active | Not Active | – | – | – | – |
| C[C@@H]1CC[C@@]2(OC1)O[C@H]1[C@@H](O)[C@H]3[C@@H]4CC[C@H]5C[C@@H](O[C@@H]6O[C@H](CO)[C@H](O[C@@H]7O[C@H](CO)C(O)[C@H](O[C@@H]8OC[C@@H](O)[C@H](O)[C@H]8O)[C@H]7O[C@@H]7O[C@H](CO)[C@H](O)[C@H](O[C@@H]8O[C@H](CO)[C@@H](O)[C@H](O)[C@H]8O)[C@H]7O)[C@H](O)[C@H]6O)[C@H](O)C[C@]5(C)[C@H]4CC[C@]3(C)[C@H]1[C@@H]2C (stereo not given in full) [DIGITONIN] | Not Active | Not Active | Not Active | – | Not Active | Not Active | Not Active | 3.88 µM | 3.64 µM | – | – |
| OC(CCCN1CCCCC1)(c1ccccc1)c1ccccc1 [DIPHENIDOL] | Not Active | Not Active | Not Active | Not Active | Not Active | Not Active | Not Active | – | – | – | – |
| C[C@H]1O[C@@H](n2cc(F)c(=O)[nH]c2=O)[C@H](O)[C@@H]1O [DOXIFLURIDINE] | Not Active | Not Active | Not Active | Not Active | Not Active | Not Active | Not Active | – | – | – | – |
| Cn1c(=O)c2c(ncn2CC(O)CO)n(C)c1=O (stereo not given) [DYPHYLLINE] | Not Active | Not Active | Not Active | Not Active | Not Active | Not Active | Not Active | – | – | – | – |
| CC[C@H]1CN2CCc3cc(OC)c(OC)cc3[C@@H]2C[C@@H]1C[C@H]1NCCc2cc(OC)c(OC)cc21 [EMETINE] | Not Active | Not Active | Not Active | Not Active | Not Active | Not Active | Not Active | – | – | – | – |
| C[C@@H](CO)NC(=O)[C@@H]1C=C2c3cccc4[nH]cc(c34)C[C@H]2N(C)C1 [ERGONOVINE] | Not Active | Not Active | Not Active | Not Active | Not Active | Not Active | Not Active | – | – | – | – |
| COC(=O)CCc1ccc(OCC(O)CNC(C)C)cc1 (stereo not given) [ESMOLOL] | Not Active | Not Active | Not Active | Not Active | Not Active | Not Active | Not Active | – | – | – | – |
| CCC1(C)CC(=O)NC1=O (stereo not given) [ETHOSUXIMIDE] | Not Active | Not Active | Not Active | Not Active | Not Active | Not Active | Not Active | – | – | – | – |
| C#C[C@]1(OC(C)=O)CC[C@H]2[C@@H]3CCC4=C[C@@H](OC(C)=O)CC[C@@H]4[C@H]3CC[C@@]21C [ETHYNODIOL DIACETATE] | Not Active | Not Active | Not Active | Not Active | Not Active | Not Active | Not Active | – | – | – | – |
| COc1cc([C@@H]2c3cc4c(cc3[C@@H](O[C@@H]3O[C@@H]5CO[C@@H](C)O[C@H]5[C@H](O)[C@H]3O)[C@H]3COC(=O)[C@H]23)OCO4)cc(OC)c1O [ETOPOSIDE] | Not Active | Not Active | Not Active | Not Active | Not Active | Not Active | Not Active | – | – | – | – |
| C=CCc1ccc(O)c(OC)c1 [EUGENOL] | Not Active | Not Active | Not Active | Not Active | Not Active | Not Active | Not Active | – | – | – | – |
| CC(C(=O)O)c1cccc(Oc2ccccc2)c1 (stereo not given) [FENOPROFEN] | Not Active | Not Active | Not Active | Not Active | Not Active | Not Active | Not Active | – | – | – | – |
| CC(C)(C)NC(=O)[C@H]1CC[C@H]2[C@@H]3CC[C@H]4NC(=O)C=C[C@]4(C)[C@H]3CC[C@]12C [FINASTERIDE] | Not Active | Not Active | Not Active | Not Active | Not Active | Not Active | Not Active | – | – | – | – |

| SMILES | IC50 [1] | IC50 [2] | Ki [2] | IC50 ([3]; hek293) | IC50 [4] | IC50 [5] | IC50 [6] | IC50 ([3]; read-out: IC50) | Ki ([3]; read-out: Ki) | IC50 ([5]; read-out: IC50) | IC50 ([6]; read-out: IC50) |
| --- | --- | --- | --- | --- | --- | --- | --- | --- | --- | --- | --- |
| COc1ccc2c3c1O[C@H]1C[C@@H](O)C=C[C@@]31CCN(C)C2 [GALANTAMINE] | Not Active | Not Active | Not Active | Not Active | Not Active | Not Active | Not Active | – | – | – | – |
| Nc1ccn([C@@H]2O[C@H](CO)[C@@H](O)C2(F)F)c(=O)n1 [GEMCITABINE] | Not Active | Not Active | Not Active | Not Active | Not Active | Not Active | Not Active | – | – | – | – |
| CC(C)=CCC/C(C)=C/CO [GERANIOL] | Not Active | Not Active | Not Active | Not Active | Not Active | Not Active | Not Active | – | – | – | – |
| N=C(N)NC(=O)Cc1c(Cl)cccc1Cl [GUANFACINE] | Not Active | Not Active | Not Active | Not Active | Not Active | Not Active | Not Active | – | – | – | – |
| Oc1c(Cl)cc(Cl)c(Cl)c1Cc1c(O)c(Cl)cc(Cl)c1Cl [HEXACHLOROPHENE] | Not Active | Not Active | Not Active | Not Active | Not Active | – | – | – | – | 2.48 µM | 0.196 µM |
| NNc1nncc2ccccc12 [HYDRALAZINE] | Not Active | Not Active | Not Active | Not Active | Not Active | Not Active | Not Active | – | – | – | – |
| CC(=O)[C@@]1(O)CC[C@H]2[C@@H]3CCC4=CC(=O)CC[C@]4(C)[C@H]3CC[C@@]21C [HYDROXYPROGESTERONE] | Not Active | Not Active | Not Active | Not Active | Not Active | – | Not Active | – | – | 3.16 µM | – |
| COC1=C(OC)C(=O)C(CCCCCCCCCCO)=C(C)C1=O [IDEBENONE] | Not Active | Not Active | Not Active | Not Active | Not Active | Not Active | Not Active | – | – | – | – |
| CC(C)NNC(=O)c1ccncc1 [IPRONIAZID] | Not Active | Not Active | Not Active | Not Active | Not Active | Not Active | Not Active | – | – | – | – |
| Cc1c(OCC(F)(F)F)ccnc1C[S+]([O-])c1nc2ccccc2[nH]1 (stereo not given) [LANSOPRAZOLE] | Not Active | Not Active | Not Active | Not Active | Not Active | Not Active | Not Active | – | – | – | – |
| O=c1cc(N2CCOCC2)oc2c(-c3ccccc3)cccc12 [LY-294002] | Not Active | Not Active | Not Active | Not Active | Not Active | Not Active | Not Active | – | – | – | – |
| COc1ccc2[nH]cc(CCNC(C)=O)c2c1 [MELATONIN] | Not Active | Not Active | Not Active | Not Active | Not Active | Not Active | Not Active | – | – | – | – |
| NC(=O)C[S+]([O-])C(c1ccccc1)c1ccccc1 (stereo not given) [MODAFINIL] | Not Active | Not Active | Not Active | Not Active | Not Active | Not Active | Not Active | – | – | – | – |
| CCN(CC)CCOCCC1=CCC2CC1C2(C)C (stereo not given) [MYRTECAINE] | Not Active | Not Active | Not Active | Not Active | Not Active | Not Active | Not Active | – | – | – | – |
| O=C(O)c1cccnc1Nc1cccc(C(F)(F)F)c1 [NIFLUMIC ACID] | Not Active | Not Active | Not Active | Not Active | Not Active | Not Active | Not Active | – | – | – | – |
| O=C(N/N=C/c1ccc([N+](=O)[O-])o1)c1cc([N+](=O)[O-])cc([N+](=O)[O-])c1O [NIFURSOL] | Not Active | Not Active | Not Active | Not Active | Not Active | Not Active | Not Active | – | – | – | – |
